Reference: patent US20230159606A1, “PHARMACEUTICAL COMPOSITIONS FOR GLUCAGON AND GLP-1 CO-AGONIST PEPTIDES” (MEDIMMUNE LIMITED, priority 2019, published 2023)
Each block holds one compound with its values, some of them ahead of it.

How the values were obtained:
all microorganisms = assay: Preservative efficacy test (PET), overall compliance with European Pharmacopeia / USP criteria; type: cell-based
Description: (§2) In preservative efficacy assays, a short study was performed whereby two microorganisms were used to assess the microbial efficacy of the prepared formulations (Staphylococcus aureus and E. coli). Samples were tested at t=0 (bulk) and t=1 month after storage at 25° C.
A multivariate robustness study was carried out to investigate the impact of m-cresol content, sodium phosphate concentration, and m-cresol content on the preservative efficacy of the 5 mg/mL multi-dose formulation. […] A total of 20 bulk formulations were prepared and tested in accordance with the European Pharmacopeia Edition 10.0 Section 5.1.3 and the United States Pharmacopeia 42 <51>.

[1] = Visual inspection: gel formation, particles, shaking and freeze/thaw stress; type: physicochemical
Description: Samples were stressed by temperature and freeze/thaw and analyzed for purity, aggregation, visual inspection, and for the presence of sub-visible particles.
In the freeze/thaw studies, the formulation was tested in the presence or absence of polysorbate 80 (0.3% v/v) with either 2 mg/ml or 5 mg/ml protein. Fresh solutions (glass vials, Type I, transparent) were frozen by three freeze/thaw cycles. After the thawing, samples were kept at 5 and 25° C. for up to 3 weeks and analysed by visual inspection. Samples without freezing were run in parallel as control. In a second study, the container closer compatibility was assessed by using Nalgene HDPE (more suitable for toxicological studies). In this case, only formulation at 5 mg/mL was analysed.
In these experiments, formulations with 0.03% polysorbate 80 were compared to formulations without polysorbate 80. The samples were incubated for 7 days at 50° C. […] All of the samples were then incubated for another 12 days.

[2] = Description: The solubility and pH stability of the GLP-1/glucagon agonist peptide MEDI0382 (FIG. 1) were studied. In particular, solubility was studied in different types of buffers, different buffer ionic strengths, pure water, and organic solvents. The aqueous pH solubility of MEDI0382 was also assessed. The chemical stability (as measured by reverse phase ultra performance liquid chromatography (RP-UPLC)) and secondary structure (as measured by Fourier transform infrared spectroscopy (FTIR) and UV circular dichoism spectroscopy (CD)) were also assessed at various pHs. Furthermore, the effect of pH on the kinetics of MEDI0382 aggregation were also assessed in a thioflavin T binding (ThT) assay. […]
The six selected formulations were used in a 1-month stability study at refrigerated (2-8° C.) and stressed conditions (37° C.). Samples were assessed at time zero, 2 weeks, and 4 weeks by RP-UPLC, DLS, Visual Inspection, Micro-Flow Imaging (MFI), Size Exclusion Chromatography-Multi-Angle Light Scattering (SEC-MALS). […]
(§1) The fiber formation was again evaluated using a ThT assay. […] Chemical degradation associated with these excipients was also monitored for one month for samples kept at 5° C. and 40° C. using an RP-UPLC assay. […] Particle formation associated with these excipients was also monitored by visual inspection after shaking stress (800 rpm for 4 hours). […]

[3] = remark: listed apart in the source
Description: The solubility and pH stability of the GLP-1/glucagon agonist peptide MEDI0382 (FIG. 1) were studied. In particular, solubility was studied in different types of buffers, different buffer ionic strengths, pure water, and organic solvents. The aqueous pH solubility of MEDI0382 was also assessed. The chemical stability (as measured by reverse phase ultra performance liquid chromatography (RP-UPLC)) and secondary structure (as measured by Fourier transform infrared spectroscopy (FTIR) and UV circular dichoism spectroscopy (CD)) were also assessed at various pHs. Furthermore, the effect of pH on the kinetics of MEDI0382 aggregation were also assessed in a thioflavin T binding (ThT) assay.
The effect of excipients on fiber formation was analyzed by evaluating whether or not amino acids and divalent ions could prevent fiber formation at pH 7.5. […] The fiber formation was evaluated using a Thioflavin T binding assay (ThT) assay.
as §1

[4] = MEDI0382 solubility studies (buffers, ionic strength, water, organic solvents, aqueous pH); type: physicochemical
Description: The aqueous pH solubility of MEDI0382 was also assessed.

[5] = Dynamic Light Scattering (DLS): particle size, Z-average, hydrodynamic diameter; type: physicochemical; conditions: 50 mM PB pH 7.5, 1.85% w/v PG, 0.03% v/v PS80; one month
Description: The principles for formulation ranking used in Table 3 were the loss of peptide purity (main area peak/total peak area) at accelerated conditions (purity loss≤3% per 1 week at 40° C., low risk; purity loss>5% week at 40° C.=high risk) and physical stability at 40 or 5° C. (Z-average<10 nm=low risk, >10 nm=medium risk; >100 nm=high risk).
The six selected formulations were used in a 1-month stability study at refrigerated (2-8° C.) and stressed conditions (37° C.). Samples were assessed at time zero, 2 weeks, and 4 weeks by RP-UPLC, DLS, Visual Inspection, Micro-Flow Imaging (MFI), Size Exclusion Chromatography-Multi-Angle Light Scattering (SEC-MALS).
Purity (RP-UPLC), aggregation (DLS), peptide concentration (A280), High order structure (SEC-MALS)(multiangle (laser) light scattering), Sub-visible particles (MFI), Osmolarity, Conformational stability (Circular dichroism (CD) spectroscopy) and pH tests were conducted. The following temperatures were tested: 5° C., 15° C.; 25° C., 40° C. and −80° C. The following time points were tested: 0, 2 weeks, 1, 2, 3, 6, 9, 12, 24 and 36 months.
In another set of experiments, the impact of sorbitol (0-250 mM), propylene glycol (0-2%), and phenol (0-2%) in a pH range 7-8.2 on the physical stability of MEDI0382 was explored. Physical stability was monitored using DLS (DynaPro plate reader, Wyatt) and the ThT assay.

[6] = Secondary structure by FTIR and UV circular dichroism; type: physicochemical
[7] = Container compatibility: syringe stability and adsorption to containers; type: physicochemical; conditions: 50 mM Phosphate buffer, 1.85% (w/v) propylene glycol, pH 7.4
Description: The chemical stability of MEDI0382 was tested in 50 mM Phosphate buffer, 1.85% (w/v) of propylene glycol, pH 7.4.
This MEDI0382 formulation was stable in BD Plastipak syringes for at least 4 hours at room temperature.
However, an adsorption of the peptide to the containers at low levels of dosing (below 0.1 mg/ml) was identified. This MEDI0382 formulation was ruled out because the low doses of drug likely to be required to achieve a pharmacological (agonistic) effect could not feasibly be delivered in this way.

Staphylococcus aureus = assay: Preservative efficacy test (PET; Ph. Eur. / USP), S. aureus; conditions: 5.5 mg/mL MEDI0382 multi-dose formulation
Description: as §2
Preservative efficacy testing (PET) was also performed on 2 and 5 mg/ml MEDI0382 formulations containing 20 mM sodium phosphate buffer, 220 mM sorbitol, and m-Cresol (at the concentrations indicated in Table 35) at pH.
A total of 20 bulk formulations were prepared and tested in accordance with the European Pharmacopeia Edition 10.0 Section 5.1.3 and the United States Pharmacopeia 42 <51>.

SMILES: Cc1cccc(O)c1 [Hedinger m-Cresol, m-Cresol]
European criteria passed (PET) (all microorganisms; highest concentrations tested, S. aureus and E. coli): passed the more stringent European (“A”) criteria

gel formation ([1]; 0.03% polysorbate 80, pH 6.9, 7 days at 50° C.): turned into a solid gel | gel formation ([1]; 0.03% polysorbate 80, pH 8.3, 7 days at 50° C.): did not | visual inspection ([1]; 50 mM PB pH 7.5, 1.85% w/v PG, 0.03% v/v PS80, 2-month storage): gel-like-appearance | gel formation ([1]; without polysorbate 80, pH 6.9, another 12 days): turned into a soft gel | pH at which both physical and chemical stability are improved [2]: ≥ 8 | optimal pH for physical stability [3]: > 7.8 | Organic solvent solubility [4]: Low | Physical state [4]: Amorphous powder, hygroscopic, sensitive | Preferable buffers solubility [4]: Sodium phosphate and TRIS | solubility ([4]; buffers of different ionic strengths, read-out: Ranges of ionic strength solubility): ≥ 25 mM | Aqueous solution pH solubility ([4]; pH 1 to 3 and 6 to 13): increases at pH 1 to 3 and 6 to 13 | Aqueous solution pH solubility ([4]; pH 4.1 to 4.5): Insoluble at pH 4.1 to 4.5, solubility | concentration at which adsorption of the peptide to the containers was identified [7]: below 0.1 mg/ml | time stable in BD Plastipak syringes ([7]; room temperature): at least 4 hours
SMILES: CCCCCCCCCCCCCCCC(=O)N[C@@H](CCC(=O)NCCCC[C@H](NC(=O)[C@H](CC(=O)O)NC(=O)[C@H](CO)NC(=O)[C@@H](NC(=O)[C@H](Cc1ccccc1)NC(=O)[C@@H](NC(=O)CNC(=O)[C@H](CCC(N)=O)NC(=O)[C@H](CO)NC(=O)[C@@H](N)Cc1c[nH]cn1)[C@@H](C)O)[C@@H](C)O)C(=O)N[C@@H](CO)C(=O)N[C@@H](CCC(=O)O)C(=O)N[C@@H](Cc1ccc(O)cc1)C(=O)N[C@@H](CC(C)C)C(=O)N[C@@H](CC(=O)O)C(=O)N[C@@H](CO)C(=O)N[C@@H](CCC(=O)O)C(=O)N[C@@H](CCCNC(=N)N)C(=O)N[C@@H](C)C(=O)N[C@@H](CCCNC(=N)N)C(=O)N[C@@H](CC(=O)O)C(=O)N[C@@H](Cc1ccccc1)C(=O)N[C@H](C(=O)N[C@@H](C)C(=O)N[C@@H](Cc1c[nH]c2ccccc12)C(=O)N[C@@H](CC(C)C)C(=O)N[C@@H](CCC(=O)O)C(=O)N[C@@H](C)C(=O)NCC(=O)NCC(=O)O)C(C)C)C(=O)O [MEDI0382]
pH impact on aggregation kinetics: lag time ([3]; pH 8): kinetics (higher lag time at pH 8 (93 hours), | Z-average values (DLS) [5]: increased sharply over the month at all temperatures, except at −80 °C | pH impact on secondary structure [6]: increases α-helix in alkaline conditions (7 to 8)

SMILES: Cc1cccc(O)c1 [meta-cresol]
minimum meta-cresol needed to achieve Ph. Eur. Criteria A (all microorganisms): ≥ 0.34 % (w/v) | minimum meta-cresol needed to consistently achieve Ph. Eur. Criteria B (all microorganisms): ≥ 0.27 % (w/v) | m-cresol concentration at which USP and EP criteria A are consistently met for all microorganisms except Staphylococcus aureus (EP criteria B met) (all microorganisms; 5.5 mg/mL MEDI0382 multi-dose formulation): ≥ 0.24 % (w/v) | m-cresol concentration required for a log reduction consistently greater than 3 at 24 hours (Staphylococcus aureus): ≥ 0.28 % (w/v)

SMILES: Oc1ccccc1 [phenol]
phenol concentration needed to achieve the less stringent European (“B”) criteria (all microorganisms; with 1 mg/mL MEDI0382): at least 0.44 % w/v | phenol concentration needed to achieve the less stringent European (“B”) criteria (all microorganisms; with 2 mg/mL MEDI0382): at least 0.54 % w/v
